Data reported in ChEMBL document CHEMBL1201862, “PubChem BioAssay data set” (2004).
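These data come from cells grown in 96-well plates and exposed to compound for 48 hours at five concentrations. Here, GI50 denotes the concentration required for 50% inhibition of growth.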 Activity calls are given as the source filed them. Cut-off read from the data, not from the text of the source: active = GI50 up to about 1.1 µM and inactive = higher.

How the values were obtained:
Test in all cases: NCI anticancer screen, dose series, 48 h
OVCAR-5 = test system: OVCAR-5
MDA-MB-231 = test system: MDA-MB-231
SNB-75 = test system: SNB-75
IGROV-1 = test system: IGROV-1
U-251 = test system: U-251
KM12 = test system: KM12
PC-3 = test system: PC-3
SK-MEL-28 = test system: SK-MEL-28
NCI/ADR-RES = test system: NCI/ADR-RES
DU-145 = test system: DU-145
Malme-3M = test system: Malme-3M
UO-31 = test system: UO-31
ACHN = test system: ACHN
HCT-15 = test system: HCT-15
SK-MEL-2 = test system: SK-MEL-2
SNB-19 = test system: SNB-19
MDA-N = test system: MDA-N
T47D = test system: T47D
786-0 = test system: 786-0
UACC-257 = test system: UACC-257
SF-268 = test system: SF-268
MOLT-4 = test system: MOLT-4
RPMI-8226 = test system: RPMI-8226
TK-10 = test system: TK-10
NCI-H460 = test system: NCI-H460
MDA-MB-435 = test system: MDA-MB-435
K562 = test system: K562
CAKI-1 = test system: CAKI-1
BT-549 = test system: BT-549
NCI-H226 = test system: NCI-H226
HCC 2998 = test system: HCC 2998
SF-295 = test system: SF-295
HT-29 = test system: HT-29
SR = test system: SR
A549 = test system: A549
SN12C = test system: SN12C
NCI-H23 = test system: NCI-H23
A498 = test system: A498
MCF7 = test system: MCF7
OVCAR-8 = test system: OVCAR-8
UACC-62 = test system: UACC-62
HL-60 = test system: HL-60
HCT-116 = test system: HCT-116
SK-MEL-5 = test system: SK-MEL-5
SW-620 = test system: SW-620
RXF 393 = test system: RXF 393
SF-539 = test system: SF-539
EKVX = test system: EKVX
SK-OV-3 = test system: SK-OV-3
HOP-62 = test system: HOP-62
OVCAR-4 = test system: OVCAR-4
OVCAR-3 = test system: OVCAR-3
COLO 205 = test system: COLO 205
M14 = test system: M14
LOX IMVI = test system: LOX IMVI
HOP-92 = test system: HOP-92
NCI-H522 = test system: NCI-H522
CCRF-CEM = test system: CCRF-CEM

Measured: GI50

Cc1ccc(Cc2n[nH]c(=O)n2-c2ccccc2)cc1
> 100 µM: HCT-15
inactive: OVCAR-5 > 100 µM | MDA-MB-231 > 100 µM | SNB-75 > 100 µM | IGROV-1 > 100 µM | U-251 > 100 µM | KM12 > 100 µM | PC-3 > 100 µM | SK-MEL-28 > 100 µM | NCI/ADR-RES > 100 µM | DU-145 > 100 µM | Malme-3M > 100 µM | UO-31 86.7 µM | ACHN > 100 µM | SK-MEL-2 73.1 µM | SNB-19 > 100 µM | MDA-N > 100 µM | 786-0 > 100 µM | UACC-257 > 100 µM | SF-268 > 100 µM | MOLT-4 > 100 µM | RPMI-8226 36.1 µM | TK-10 > 100 µM | NCI-H460 > 100 µM | MDA-MB-435 > 100 µM | K562 > 100 µM | CAKI-1 > 100 µM | BT-549 > 100 µM | NCI-H226 > 100 µM | HCC 2998 > 100 µM | SF-295 > 100 µM | HT-29 > 100 µM | SR > 100 µM | A549 > 100 µM | SN12C > 100 µM | NCI-H23 > 100 µM | A498 37.5 µM | MCF7 > 100 µM | OVCAR-8 > 100 µM | UACC-62 55.3 µM | HL-60 > 100 µM | HCT-116 > 100 µM | SK-MEL-5 > 100 µM | SW-620 > 100 µM | RXF 393 20.2 µM | SF-539 > 100 µM
active: T47D 0.652 µM

O=C1Nc2ccccc2/C1=N/Nc1nc(-c2ccc([N+](=O)[O-])cc2)cs1
inactive: OVCAR-5 22 µM | MDA-MB-231 40.9 µM | SNB-75 7.45 µM | EKVX 61 µM | IGROV-1 18.7 µM | U-251 57 µM | KM12 28.5 µM | SK-OV-3 63.1 µM | PC-3 24 µM | SK-MEL-28 29.7 µM | HOP-62 > 100 µM | OVCAR-4 18.1 µM | NCI/ADR-RES 15.6 µM | DU-145 26.5 µM | UO-31 11.4 µM | ACHN 13.3 µM | OVCAR-3 30.8 µM | SK-MEL-2 26.9 µM | SNB-19 44.1 µM | MDA-N 27 µM | T47D 29.1 µM | 786-0 19.4 µM | UACC-257 32.1 µM | MOLT-4 51.9 µM | TK-10 17.5 µM | NCI-H460 11 µM | MDA-MB-435 24.7 µM | CAKI-1 17.9 µM | BT-549 15.6 µM | NCI-H226 38.9 µM | COLO 205 44.2 µM | HCC 2998 21.9 µM | SF-295 24.1 µM | HT-29 22.9 µM | M14 15 µM | A549 30.1 µM | SN12C 27 µM | NCI-H23 27.7 µM | MCF7 35.3 µM | OVCAR-8 16.8 µM | LOX IMVI 35.6 µM | HCT-116 29.6 µM | SK-MEL-5 31.7 µM | HOP-92 17.4 µM | SW-620 32.7 µM | SF-539 17.1 µM
14.5 µM: HCT-15

Cc1nc(N)sc1/N=N/c1ccccc1Br
33.7 µM: HCT-15
inactive: OVCAR-5 41.6 µM | MDA-MB-231 37.3 µM | SNB-75 10.3 µM | EKVX 18.3 µM | IGROV-1 24.1 µM | U-251 31 µM | KM12 33.5 µM | SK-OV-3 > 57.7 µM | PC-3 33.3 µM | SK-MEL-28 33.1 µM | HOP-62 39.3 µM | OVCAR-4 > 35.3 µM | NCI/ADR-RES 39.4 µM | DU-145 34.7 µM | Malme-3M 26.2 µM | UO-31 31 µM | ACHN 43.1 µM | OVCAR-3 38.2 µM | SK-MEL-2 34 µM | SNB-19 > 44.5 µM | MDA-N 27.9 µM | T47D 15.8 µM | 786-0 36.6 µM | UACC-257 32.9 µM | SF-268 17.2 µM | MOLT-4 > 52.2 µM | RPMI-8226 65.3 µM | TK-10 37.9 µM | NCI-H460 22.9 µM | MDA-MB-435 24.3 µM | K562 > 65.9 µM | CAKI-1 43.5 µM | BT-549 24.7 µM | NCI-H226 39.7 µM | COLO 205 > 54.7 µM | NCI-H522 14.2 µM | HCC 2998 8.87 µM | SF-295 44.9 µM | HT-29 35.9 µM | SR 35.2 µM | M14 37.7 µM | A549 > 53.7 µM | SN12C 34.8 µM | NCI-H23 28.2 µM | CCRF-CEM 3.75 µM | A498 14.2 µM | MCF7 35.4 µM | OVCAR-8 > 54.3 µM | UACC-62 28.6 µM | LOX IMVI > 48.9 µM | HL-60 > 42.5 µM | HCT-116 33.2 µM | SK-MEL-5 31.3 µM | HOP-92 18 µM | SW-620 > 53.1 µM | RXF 393 21.8 µM | SF-539 > 44.1 µM
